The numbers were not newly measured in paper PMC6696021, “Combined Ensemble Docking and Machine Learning in Identification of Therapeutic Agents with Potential Inhibitory Effect on Human CES1” (Molecules, 2019), which cites them from elsewhere.

The target in the series is CES1. Also noted: method as in earlier work. The following applies: Table S1, bioactivity from ChEMBL database; read-out: Ki_Nanomolar; cited from earlier work.
On to `O=C(Nc1cccc(C(=O)C(=O)c2ccccn2)c1)c1cccc(Cl)c1` [CHEMBL1630814], for which the Ki was 756 nM.

Regarding `O=C(O)c1ccc(C(=O)C(=O)c2ccccc2)cc1` [CHEMBL370059], the Ki is 524 nM.

In the case of `O=C1C(=O)C(Cl)=C(Cl)C(Cl)=C1Cl` [CHEMBL364729], the Ki was 5440 nM.

Turning to `Cc1cccc2c3c(ccc12)C1=C(C(=O)C3=O)[C@@H](C)CO1` [DIHYDROTANSHINONEI], the Ki is 398 nM.

`CCCCCCSCC(=O)C(F)(F)F` [CHEMBL440542]: the Ki was 168 nM.

With `O=C(C(=O)c1ccc(F)cc1)c1ccc(F)cc1` [CHEMBL192410], the Ki is 230 nM.

On to `O=C(Nc1cccc(C(=O)C(=O)c2ccccn2)c1)c1ccc(F)cc1` [CHEMBL1630816], for which the Ki was 381 nM.

With `CC(=O)C(=O)c1ccccc1` [CHEMBL192258], the Ki was 5270 nM.

Turning to `CCCCCC[S+]([O-])CC(O)(O)C(F)(F)F` (stereo not shown) [CHEMBL460808], the Ki is 39700 nM.

`O=C(C(=O)c1ccc2ccccc2c1)c1ccc2ccccc2c1` [CHEMBL189162]: the Ki is 256 nM.

Regarding `O=C1Nc2ccc(Br)cc2C1=O` [CHEMBL115897], the Ki was 31700 nM.

For `O=C1Nc2cc(Cl)cc(Cl)c2C1=O` [CHEMBL385800], the Ki is 890 nM.

For the compound `O=C(C(=O)c1ccc(Br)cc1)c1ccc(Br)cc1` [CHEMBL193228], the Ki was 66700 nM.

Turning to `COC(OC)(C(=O)c1ccccc1)c1ccccc1` [CHEMBL364734], the Ki is 15300 nM.

Turning to `O=C(Cc1ccccc1Nc1c(Cl)cccc1Cl)O[C@@H]1O[C@H](C(=O)O)[C@@H](O)[C@H](O)[C@H]1O` [CHEMBL3527338], the Ki was 4320 nM.

Regarding `O=C1C(=O)c2ccc([N+](=O)[O-])c3c([N+](=O)[O-])ccc1c23` [CHEMBL235289], the Ki was 570 nM.

With `CCCCCCCCS(=O)(=O)CC(O)(O)C(F)(F)F` [CHEMBL460807], the Ki is 757 nM.

`CC(=O)N1C(=O)C(=O)c2ccccc21` [CHEMBL223001]: the Ki is 36000 nM.

With `CC(C)C1=Cc2ccc3c(c2C(=O)C1=O)CCCC3(C)C` [MILTIRONE], the Ki was 2530 nM.

On to `O=C1C(=O)c2cccnc2-c2ncccc21` [CHEMBL235504], for which the Ki was 5400 nM.

Take `O=C1C(=O)N(CNc2ccccc2Br)c2ccccc21` [CHEMBL374758]: the Ki is 36000 nM.

`O=C1Nc2cc(Cl)c(Cl)cc2C1=O` [CHEMBL222988]: the Ki was 21000 nM.

As to `O=C(C(=O)c1cc(Br)cs1)c1cc(Br)cs1` [CHEMBL190672], the Ki is 20.8 nM.

`Cc1ccc(C(=O)C(=O)c2ccccc2)cc1C` [CHEMBL193140]: the Ki was 79.2 nM.

Take `O=C1C(=O)N(CNc2ccc(Cl)cc2)c2ccccc21` [CHEMBL222712]: the Ki is 610 nM.

As to `O=C(C(=O)c1cc(F)c(F)c(F)c1)c1cc(F)c(F)c(F)c1` [CHEMBL193180], the Ki is 405 nM.

Regarding `O=C1Nc2c(Cl)cccc2C1=O` [CHEMBL222190], the Ki was 11400 nM.

Regarding `CCCCSCC(=O)C(F)(F)F` [CHEMBL402615], the Ki was 400 nM.

With `O=C(c1ccccc1)C(O)c1ccccc1` (stereo not shown) [BENZOIN], the Ki is 30400 nM.

Turning to `Cc1ccc(NCN2C(=O)C(=O)c3ccccc32)cc1` [CHEMBL222851], the Ki is 2650 nM.

In the case of `CCCCCCCCCCSCC(=O)C(F)(F)F` [CHEMBL270374], the Ki was 66.4 nM.

Consider `O=C1Nc2c(Cl)ccc(Cl)c2C1=O` [CHEMBL223039], for which the Ki is 590 nM.

As to `O=C1C(=O)c2cccc3cccc1c23` [ACENAPHTHOQUINONE], the Ki is 31 nM.

Take `COc1ccc(C(=O)C(=O)c2ccc(OC)cc2)cc1` [CHEMBL191513]: the Ki is 3400 nM.

Turning to `CCCCCCC(=O)C(=O)c1ccccc1` [CHEMBL1812864], the Ki was 2.19 nM.

For `Cc1coc2c1C(=O)C(=O)c1c-2ccc2c1CCCC2(C)C` [TANSHINONEIIA], the Ki is 6890 nM.

As for `O=C(C(=O)c1ccc(Br)s1)c1ccc(Br)s1` [CHEMBL192592], the Ki was 142 nM.

Consider `O=C(CSCCc1ccccc1)C(F)(F)F` [CHEMBL460809], for which the Ki was 63.3 nM.

Turning to `CCCCCCCCCCCCSCC(=O)C(F)(F)F` [CHEMBL270375], the Ki was 39.1 nM.

Take `CCCCCCOCC(O)(O)C(F)(F)F` [CHEMBL449475]: the Ki was 1660 nM.

Consider `O=C(C(=O)c1ccc(Cl)cc1)c1ccc(Cl)cc1` [CHEMBL192139], for which the Ki was 25100 nM.

For `O=C1C(=O)N(CNc2ccc(Br)cc2)c2ccccc21` [CHEMBL385132], the Ki is 580 nM.

As to `CCCCCC(=O)C(=O)c1ccccc1` [CHEMBL1812863], the Ki is 6.68 nM.

`CCCCCCC(=O)C(=O)CCCCCC` [CHEMBL1812857]: the Ki was 4.8 nM.

For the compound `CCCCCCCCCCCCS(=O)(=O)CC(O)(O)C(F)(F)F` [CHEMBL467450], the Ki is 371 nM.

For the compound `COc1ccc(C(=O)C(=O)c2ccccc2Cl)cc1OC` [CHEMBL191822], the Ki is 3310 nM.

`O=C1C(=O)c2cccc3c2N(CCC3)C1=O` [CHEMBL235290]: the Ki was 5380 nM.

In the case of `CCCCCCCCCC[S+]([O-])CC(O)(O)C(F)(F)F` (stereo not shown) [CHEMBL464002], the Ki is 2620 nM.

`O=C(C(=O)c1cc(F)cc(F)c1)c1cc(F)cc(F)c1` [CHEMBL193229]: the Ki was 79.7 nM.

Regarding `O=C1C(Cl)=C(Cl)C(=O)C(Cl)=C1Cl` [CHLORANIL], the Ki was 83.9 nM.

Regarding `COc1ccc(C(=O)C(=O)c2ccccc2)cc1` [CHEMBL192474], the Ki is 174 nM.

Take `O=C(Cc1ccccc1)C(=O)Cc1ccccc1` [CHEMBL1812850]: the Ki is 3080 nM.

Consider `O=C(C(=O)C(Br)c1ccccc1)C(Br)c1ccccc1` (stereo not shown) [CHEMBL1812851], for which the Ki is 107 nM.

As to `O=C1C(=O)N(Cc2ccc(Cl)c(Cl)c2)c2ccccc21` [CHEMBL375126], the Ki is 31 nM.

`O=C(C(=O)c1c(Cl)c(Cl)c(Cl)c(Cl)c1Cl)c1c(F)c(F)c(F)c(F)c1F` [CHEMBL195713]: the Ki was 1690 nM.

Turning to `Cc1ccc(C(=O)C(=O)c2ccccc2)cc1` [CHEMBL371858], the Ki was 125 nM.

As to `O=C1C(=O)N(Cc2ccc(Cc3ccc(CN4C(=O)C(=O)c5ccccc54)cc3)cc2)c2ccccc21` [CHEMBL222752], the Ki is 8 nM.

In the case of `O=C1C(=O)N(c2ccccc2)c2ccccc21` [PHENYLISATIN], the Ki is 23 nM.

Consider `O=C1C(=O)c2c3ccccc3cc3cccc1c23` [CHEMBL235503], for which the Ki is 1.5 nM.

For the compound `CC(C)(C)C1=CC(=O)C(=O)C(C(C)(C)C)=C1` [CHEMBL365161], the Ki is 88.6 nM.

On to `OC(O)(CSCCc1ccccc1)C(F)(F)F` [CHEMBL510996], for which the Ki was 6900 nM.

`O=C1C(=O)N(CCI)c2ccccc21` [CHEMBL376518]: the Ki was 130 nM.

For the compound `O=C(c1cccs1)C(O)c1cccs1` (stereo not shown) [CHEMBL190660], the Ki was 3100 nM.

As for `CCCCCCCCCCCCN1C(=O)C(=O)c2ccccc21` [CHEMBL222644], the Ki is 10 nM.

For the compound `Cc1ccc(C(=O)C(=O)c2ccc(C)cc2)cc1` [CHEMBL192625], the Ki was 535 nM.

As to `Cc1coc2c1C(=O)C(=O)c1c-2ccc2c(C)cccc12` [TANSHINONEI], the Ki was 26200 nM.

On to `O=C1C(=O)c2sccc2-c2ccsc21` [CHEMBL398109], for which the Ki is 150 nM.

Turning to `O=C(C(=O)c1ccccn1)c1cccc(NC(=O)c2ccc(Cl)cc2Cl)c1` [CHEMBL1630808], the Ki was 279 nM.

`O=C(C(=O)c1ccccn1)c1ccccn1` [CHEMBL373345]: the Ki was 245 nM.

For `CCCC(=O)C(=O)c1ccccc1` [CHEMBL1812861], the Ki was 102 nM.

Turning to `CCCCCCCC(=O)C(=O)CCCCCCC` [CHEMBL1812858], the Ki was 7.6 nM.

`O=C1C(=O)c2ccccc2CCc2ccccc21` [CHEMBL235931]: the Ki is 2980 nM.

`O=C1C(=O)N(Cc2ccccc2)c2ccccc21` [CHEMBL115581]: the Ki was 1700 nM.

As for `COc1cccc(C(=O)C(=O)c2cccc(OC)c2)c1` [CHEMBL435109], the Ki is 1540 nM.

On to `CCCCC(=O)C(C)=O` [CHEMBL364588], for which the Ki was 16900 nM.

Take `O=C1Cc2ccccc2C1=O` [CHEMBL235288]: the Ki was 5240 nM.

Regarding `CCCCCCCC[S+]([O-])CC(O)(O)C(F)(F)F` (stereo not shown) [CHEMBL460806], the Ki is 7400 nM.

`CCCCC(=O)C(=O)CCCC` [CHEMBL1812855]: the Ki was 46.6 nM.

On to `C[C@H]1COC2=C1C(=O)C(=O)c1c2ccc2c1CCCC2(C)C` [CRYPTOTANSHINONE], for which the Ki was 544 nM.

As to `CCCCCCCCC(=O)C(=O)CCCCCCCC` [CHEMBL1812859], the Ki is 0.84 nM.

With `O=C(O)[C@H]1O[C@@H](OC(=O)[C@H](c2ccccc2Cl)N2CCc3sccc3C2)[C@H](O)[C@@H](O)[C@@H]1O` [CHEMBL3526940], the Ki was 24800 nM.

In the case of `CCCCCCCCCCC(=O)C(F)(F)F` [CHEMBL86668], the Ki was 76.8 nM.

In the case of `O=C(C(=O)c1ccco1)c1ccco1` [CHEMBL371181], the Ki is 3610 nM.

As for `CCCCCCCCCCS(=O)(=O)CC(O)(O)C(F)(F)F` [CHEMBL467451], the Ki is 397 nM.

As for `O=C(C(=O)c1cccs1)c1cccs1` [CHEMBL365445], the Ki was 433 nM.

Consider `CCCCCCCCSCC(=O)C(F)(F)F` [CHEMBL89506], for which the Ki is 97.4 nM.

As to `Cc1ccc(C(=O)C(=O)c2ccc(Cl)cc2)cc1` [CHEMBL192252], the Ki is 159 nM.

Take `O=C(Nc1cccc(C(=O)C(=O)c2ccccn2)c1)c1ccc(C(F)(F)F)cc1` [CHEMBL1629724]: the Ki is 437 nM.

Consider `CCCC(=O)C(=O)CCC` [CHEMBL1812854], for which the Ki was 8060 nM.

As for `O=C(Cc1ccccc1)C(=O)C(Br)c1ccccc1` (stereo not shown) [CHEMBL1812852], the Ki is 2630 nM.

Take `CCCCC(=O)C(=O)c1ccccc1` [CHEMBL1812862]: the Ki was 26.1 nM.

In the case of `O=C(C(=O)c1ccc([N+](=O)[O-])cc1)c1ccc([N+](=O)[O-])cc1` [CHEMBL236340], the Ki is 9800 nM.

`O=C(Nc1cccc(C(=O)C(=O)c2ccccn2)c1)c1ccc(F)c(F)c1` [CHEMBL1630811]: the Ki was 1240 nM.

`O=C1C(=O)N(CCBr)c2ccccc21` [CHEMBL223000]: the Ki was 290 nM.
